Biological target: T1, ligand binding domain of human ROR gamma (Homo sapiens, UniProt P51449)
T1 construct: NM_001001523; expressed in transfected cells; host or cells: HEK293T
T1 sequence (P51449 247-497 isoform P51449-2): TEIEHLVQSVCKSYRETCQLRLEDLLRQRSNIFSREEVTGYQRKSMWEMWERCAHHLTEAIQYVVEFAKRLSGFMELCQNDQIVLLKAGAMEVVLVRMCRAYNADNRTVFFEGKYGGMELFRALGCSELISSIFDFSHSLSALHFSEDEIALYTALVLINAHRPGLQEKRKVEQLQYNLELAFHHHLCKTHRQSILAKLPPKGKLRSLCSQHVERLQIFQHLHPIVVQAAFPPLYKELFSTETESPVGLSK
Experiment: ROR gamma reporter gene assay (GAL4-RORγ LBD luciferase, Dual-Glo)
Type: cell-based
Settings: HEK293T cells transfected with pM-ROR gamma, 8 concentrations 3.5 nM to 10.5 μM, 24 h incubation; read-out: result (pIC50, inhibition of RORγ transcriptional activity) (converted)
Outline: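 HEK293T cells co-transfected with GAL4-DBD fused to human RORγ LBD (aa 247-497), 5×UAS firefly luciferase reporter and CMV-renilla, in charcoal-stripped serum.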

Cc1cc(Cl)c(C(=O)CN(C(=O)c2cnn(C34CCC(C(=O)O)(CC3)CC4)c2C(F)(F)F)[C@H]2C[C@@H]3[C@H](C2)C3(C)C)c(Cl)c1 [Example 321, 4-(4-((2-(2,6-dichloro-4-methylphenyl)-2-oxoethyl)((1R,3r,5S)-6,6-dimethylbicyclo[3.1.0]hexan-3-yl)carbamoyl)-5-(trifluoromethyl)-1H-pyrazol-1-yl)bicyclo[2.2.2]octane-1-carboxylic acid]
IC50: 11700 pM

CC1(C)C(CN(CC(=O)c2c(Cl)cncc2Cl)C(=O)c2cnn(C34CCC(C(=O)O)(CC3)CC4)c2C(F)(F)F)C1(C)C [Example 322, 4-(4-((2-(3,5-dichloropyridin-4-yl)-2-oxoethyl)-((2,2,3,3-tetramethylcyclopropyl)methyl)carbamoyl)-5-(trifluoromethyl)pyrazol-1-yl)bicyclo[2.2.2]octane-1-carboxylic acid]
IC50: 8130 pM

CC1(C)CCC(N(CC(=O)c2c(Cl)cncc2Cl)C(=O)c2cnn([C@H]3CC[C@](C)(C(=O)O)CC3)c2C(F)(F)F)CO1 (stereo partly drawn) [Example 323, trans-4-(4-((2(3,5-dichloropyridin-4-yl)-2-oxoethyl)-(6,6-dimethyloxan-3-yl)carbamoyl)-5-(trifluorornethyl)pyrazol-1-yl)-1-methylcyclohexane-1-carboxylic acid]
IC50: 380000 pM

C[C@]1(C(=O)O)CC[C@H](n2ncc(C(=O)N(CC(=O)c3c(Cl)cncc3Cl)CC3(O)CCCC3)c2C(F)(F)F)CC1 [Example 324, trans-4-(4-((2-(3,5-dichloropyridin-4-yl)-2-oxoethyl)-((1-hydroxycyclopentyl)methyl)carbamoyl)-5-(trifluoromethyl)pyrazol-1-yl)-1-methylcyclohexane-1-carboxylic acid]
IC50: 380000 pM

CC1(C)C(CN(CC(=O)c2c(Cl)cncc2Cl)C(=O)c2cnn([C@H]3CC[C@](C)(C(=O)O)CC3)c2C(F)(F)F)C1(C)C [Example 325, trans-4-(4-((2-(3,5-dichloropyridin-4-yl)-2-oxoethyl)-((2,2,3,3-tetramethylcyclopropyl)methyl)carbamoyl)-5-(trifluoromethyl)pyrazol-1-yl)-1-methylcyclohexane-1-carboxylic acid]
IC50: 10700 pM

CC(C)(F)CN(CC(=O)c1c(Cl)cncc1Cl)C(=O)c1cnn([C@H]2CC[C@](C)(C(=O)O)CC2)c1C(F)(F)F [Example 326, trans-4-(4-((2-(3,5-dichloropyridin-4-yl)-2-oxoethyl)-(2-fluoro-2-methylpropyl)carbamoyl)-5-(trifluoromethyl)pyrazol-1-yl)-1-methylcyclohexane-1-carboxylic acid]
IC50: 102000 pM

CC(C)(F)CN(CC(=O)c1c(Cl)cncc1Cl)C(=O)c1cnn(C23CCC(C(=O)O)(CC2)CC3)c1C(F)(F)F [Example 327, 4-(4-((2-(3,5-dichloropyridin-4-yl)-2-oxoethyl)-(2-fluoro-2-methylpropyl)carbamoyl)-5-(trifluoromethyl)pyrazol-1-yl)bicyclo[2.2.2]octane-1-carboxylic acid]
IC50: 97700 pM

CC(C)(C)CN(CCc1c[nH]c2ccccc12)C(=O)c1cnn([C@H]2CC[C@](C)(C(=O)O)CC2)c1C(F)(F)F [Example 328, trans-4-(4-(2,2-dimethylpropyl-(2-(1H-indol-3-yl)ethyl)carbamoyl)-5-(trifluoromethyl)pyrazol-1-yl)-1-methylcyclohexane-1-carboxylic acid]
IC50: 2.95e+06 pM

O=C(CN(CC1(C(F)(F)F)CC1)C(=O)c1cnn(C23CCC(C(=O)O)(CC2)CC3)c1C(F)(F)F)c1c(Cl)cncc1Cl [Example 329, 4-(4-((2-(3,5-dichloropyridin-4-yl)-2-oxoethyl)-((1-(trifluoromethyl)cyclopropyl)methyl)carbamoyl)-5-(trifluoromethyl)pyrazol-1-yl)bicyclo[2.2.2]octane-1-carboxylic acid]
IC50: 14800 pM

C[C@]1(C(=O)O)CC[C@H](n2ncc(C(=O)N(CC(=O)c3c(Cl)cncc3Cl)CC3(C(F)(F)F)CC3)c2C(F)(F)F)CC1 [Example 330]
IC50: 24000 pM

CC(C)(C)[C@@H]1C[C@H]1N(CC(=O)c1c(Cl)cncc1Cl)C(=O)c1cnn([C@H]2CC[C@](C)(C(=O)O)CC2)c1C(F)(F)F [Example 331, trans-4-(4-(((1R,2S)-2-tert-butylcyclopropyl)-(2-(3,5-dichloropyridin-4-yl)-2-oxoethyl)carbamoyl)-5-(trifluoromethyl)pyrazol-1-yl)-1-methylcyclohexane-1-carboxylic acid]
IC50: 102000 pM

CC(COC(C)(C)C)N(CC(=O)c1c(Cl)cncc1Cl)C(=O)c1cnn([C@H]2CC[C@](C)(C(=O)O)CC2)c1C(F)(F)F (stereo partly drawn) [Example 332, trans-4-(4-((2-(3,5-dichloropyridin-4-yl)-2-oxoethyl)-(1-((2-methylpropan-2-yl)oxy)propan-2-yl)carbamoyl)-5-(trifluoromethyl)pyrazol-1-yl)-1-methylcyclohexane-1-carboxylic acid]
IC50: 513000 pM

CC1(C)[C@@H]2C[C@H](N(CC(=O)c3c(F)cncc3Cl)C(=O)c3cnn([C@H]4CC[C@](C)(C(=O)O)CC4)c3C(F)(F)F)C[C@@H]21 [Example 333, trans-4-(4-((2-(3-chloro-5-fluoropyridin-4-yl)-2-oxoethyl)((1R,3r,5S)-6,6-dimethylbicyclo[3.1.0]hexan-3-yl)carbamoyl)-5-(trifluoromethyl)-1H-pyrazol-1-yl)-1-methylcyclohexanecarboxylic acid]
IC50: 17000 pM

CC(C)(C)CN(CCc1c[nH]c2cccc(Cl)c12)C(=O)c1cnn([C@H]2CC[C@](C)(C(=O)O)CC2)c1C(F)(F)F [Example 334, trans-4-(4-(2-(4-chloro-1H-indol-3-yl)ethyl-(2,2-dimethylpropyl)carbamoyl)-5-(trifluoromethyl)pyrazol-1-yl)-1-methylcyclohexane-1-carboxylic acid]
IC50: 56200 pM

CC1(C)[C@@H]2C[C@H](N(CC(=O)c3c(F)cncc3Cl)C(=O)c3cnn(C45CCC(C(=O)O)(CC4)CC5)c3C(F)(F)F)C[C@@H]21 [Example 335, 4-(4-((2-(3-chloro-5-fluoropyridin-4-yl)-2-oxoethyl)((1R,3r,5S)-6,6-dimethylbicyclo[3.1.0]hexan-3-yl)carbamoyl)-5-(trifluoromethyl)-1H-pyrazol-1-yl)bicyclo(2.2.2)octane-1-carboxylic acid]
IC50: 12300 pM

COc1cccc(Cl)c1C(O)CN(C(=O)c1cnn([C@H]2CC[C@](C)(C(=O)O)CC2)c1C(F)(F)F)C1CCC(C)(C)CC1 (stereo partly drawn) [Example 336, trans-4-(4-((2-(2-chloro-6-methoxyphenyl)-2-hydroxyethyl)-(4,4-dimethylcyclohexyl)carbamoyl)-5-(trifluoromethyl)pyrazol-1-yl)-1-methylcyclohexane-1-carboxylic acid]
IC50: 145000 pM

CC1(C)CCC(N(CC(=O)c2c(Cl)cc(F)cc2Cl)C(=O)c2cnn([C@H]3C[C@](C)(C(=O)O)C3)c2C(F)(F)F)CC1 [Example 339, trans-3-(4-((2-(2,6-dichloro-4-fluorophenyl)-2-oxoethyl)-(4,4-dimethylcyclohexyl)carbamoyl)-5-(trifluoromethyl)pyrazol-1-yl)-1-methylcyclobutane-1-carboxylic acid]
IC50: 83200 pM

CC(C)[C@@H]1C[C@@H]1N(CC(=O)c1c(Cl)cncc1Cl)C(=O)c1cnn([C@H]2CC[C@](C)(C(=O)O)CC2)c1C(F)(F)F [Example 340, trans-4-(4-((2-(3,5-dichloropyridin-4-yl)-2-oxoethyl)-((1S,2S)-2-propan-2-ylcyclopropyl)carbamoyl)-5-(trifluoromethyl)pyrazol-1-yl)-1-methylcyclohexane-1-carboxylic acid]
IC50: 123000 pM

COc1cccc(Cl)c1[C@@H](O)CN(C(=O)c1cnn([C@H]2CC[C@](C)(C(=O)O)CC2)c1C(F)(F)F)[C@H]1C[C@@H]2[C@H](C1)C2(C)C [Example 341, trans-4-(4-((2-(2-chloro-6-methoxyphenyl)-2-hydroxyethyl)((1R,3r,5S)-6,6-dimethylbicyclo[3.1.0]hexan-3-yl)carbamoyl)-5-(trifluoromethyl)-1H-pyrazol-1-yl)-1-methylcyclohexanecarboxylic acid]
IC50: 759000 pM

COc1cccc(Cl)c1[C@H](O)CN(C(=O)c1cnn([C@H]2CC[C@](C)(C(=O)O)CC2)c1C(F)(F)F)[C@H]1C[C@@H]2[C@H](C1)C2(C)C [Example 342, trans-4-(4-((2-(2-chloro-6-methoxyphenyl)-2-hydroxyethyl)((1R,3r,5S)-6,6-dimethylbicyclo[3.1.0]hexan-3-yl)carbamoyl)-5-(trifluoromethyl)-1H-pyrazol-1-yl)-1-methylcyclohexanecarboxylic acid]
IC50: 45700 pM

CC1(C)[C@@H]2C[C@H](N(CCc3c[nH]c4cccc(Cl)c34)C(=O)c3cnn([C@H]4CC[C@](C)(C(=O)O)CC4)c3C(F)(F)F)C[C@@H]21 [Example 343, trans-4-(4-((2-(4-chloro-1H-indol-3-yl)ethyl)((1R,3r,5S)-6,6-dimethylbicyclo[3.1.0]hexan-3-yl)carbamoyl)-5-(trifluoromethyl)-1H-pyrazol-1-yl)-1-methylcyclohex anecarboxylic acid]
IC50: 31600 pM

CC(C)(C)OC1CC(CN(CC(=O)c2c(Cl)cncc2Cl)C(=O)c2cnn([C@H]3CC[C@](C)(C(=O)O)CC3)c2C(F)(F)F)C1 (stereo partly drawn) [Example 344, trans-4-(4-((2-(3,5-dichloropyridin-4-yl)-2-oxoethyl)-((3-((2-methylpropan-2-yl)oxy)cyclobutyl)methyl)carbamoyl)-5-(trifluoromethyl)pyrazol-1-yl)-1-methylcyclohexane-1-carboxylic acid]
IC50: 1.58e+06 pM

Reference: patent US9365522B2, “Pyrazole amide derivative” (AMGEN INC., priority 2015, dated 2016)
